# Values quoted from earlier work in US6602521B1, “Multiplex drug delivery system suitable for oral administration” (Impax Pharmaceuticals, Inc., priority 1998, dated 2003).
smiles,measurement,setting,value
"O=[N+]([O-])O[C@@H]1CO[C@H]2[C@@H]1OC[C@@H]2O [Isosorbide mononitrate, 1,4:3,6-dihydro-D-glucitrol 5-nitrate]",absorption from the gastrointestinal tract,gastrointestinal tract,rapidly and completely absorbed
same,rate of clearance,"healthy young adults vs patients with various degrees of renal, hepatic, or cardiac dysfunction",the same
same,first pass metabolism in the liver,in humans,not subject to first pass metabolism
same,overall elimination half-life,in vivo,about 6 hours
